Experimental data: ChEMBL document CHEMBL1157539, “Thousands of chemical starting points for antimalarial lead identification” (Nature, 2010)

System: Plasmodium falciparum
Experiment: GSK_TCMDC: Inhibition of Plasmodium falciparum 3D7 in whole erythrocytes, using parasite LDH activity as an index of growth.
Assay type: functional, organism-based

| SMILES | XC50 (Plasmodium falciparum, 3D7) [nM] | XC50 [nM] |
| --- | --- | --- |
| Cc1noc(C)c1-c1cccc(CNCc2ccc(-c3ccc(-c4nc5cccc(C)c5[nH]4)cc3)cc2)c1 | 239 | – |
| Oc1cc(NCCCNC2CCc3c(Cl)cc(Cl)cc32)nc2ccccc12 (configuration not stated) | 934 | – |
| COC(=O)c1ccc2[nH]cc(C3CCN(CCC4CCN(C(=O)/C=C/c5ccc(Cl)c(Cl)c5)CC4)CC3)c2c1 | 512 | – |
| O=C(NC1CC1)c1ccc(Cn2c(SCc3cccc(Cl)c3)nc3ccccc3c2=O)cc1 | 422 | – |
| NC(=O)c1cnc2ccc(-c3cncs3)cc2c1Nc1ccc(F)c(Cl)c1 | 182 | – |
| CC(C)Sc1nc2c(c(=O)n1CCc1ccccc1)C1(CCCC1)Cc1ccccc1-2 | 347 | – |
| COCCN1CCN(Cc2ccc(-c3ccc(-c4nc5cccc(C)c5[nH]4)s3)cc2)CC1 | 859 | – |
| Cc1nc(C)c(-c2ccc(S(=O)(=O)c3ccc(Cl)cc3)cc2)c(O)c1Cl | 140 | – |
| CC1(C)NC(N)=NC(=N)N1OCCOc1ccc2ccccc2c1 | 3.2 | – |
| CN1CCN(c2ccnc3ccc(NC(=O)Nc4ccc5c(c4)CCCC5=O)cc23)CC1 | 132 | – |
| CN(C)Cc1cccc(CNC(=O)c2sccc2OCc2ccc(Cl)cc2)c1 | 835 | – |
| CC(C)(C)c1nn(-c2ccccc2)c2[nH]c(=O)c(CNCc3ccccc3)cc12 | 1050 | – |
| CC(C)NCc1ccc(-c2ccc(CN3CCCC(c4ccccc4)C3)cc2)c(C(=O)NC2Cc3ccccc3C2)c1 (configuration not stated) | 991 | – |
| O=C(Cc1c[nH]cn1)Nc1ccc(-c2ccc(-c3nc4cc(C(F)(F)F)ccc4[nH]3)s2)cc1 | 657 | – |
| c1ccc(-c2ccc(CNCc3ccc(-c4cccc(-c5nc6ccccc6[nH]5)c4)cc3)s2)nc1 | 396 | – |
| CC(N)(Cc1ccc(O)cc1)c1nnn[nH]1 (configuration not stated) | 969 | – |
| Cc1cccc2nc(-c3cccc(-c4ccc(NC(=O)NC(C)C)cc4)c3)[nH]c12 | 754 | – |
| CCN1CCN(c2cc(C)c3cc(NC(=O)c4cccc([N+](=O)[O-])c4)ccc3n2)CC1 | 524 | – |
| Cc1ccc2[nH]c(-c3cc(-c4ccc(CO)cc4)cnc3N)nc2c1 | 861 | – |
| O=C(Nc1cccc(CN2CCCN(CCc3ccccc3)CC2)c1)c1cc2ccccc2s1 | 1130 | – |
| NC1CCN(Cc2ccc(-c3cccc(-c4nc5ccccc5[nH]4)c3)cc2)C1 (configuration not stated) | 849 | – |
| Cn1cc(-c2ccnc3[nH]c(-c4cccc(CNC5CCC(O)CC5)c4)cc23)cn1 (configuration not stated) | 903 | – |
| CCOc1ccc2nccc([C@@H](O)[C@@H]3C[C@@H]4CCN3C[C@@H]4CC)c2c1 [ETHYLHYDROCUPREINE] | – | 612 |
| CC(C)(C)c1ccc(NC(=O)c2ccc(CN3CCCN(Cc4cccc(F)c4)CC3)cc2)cc1 | 1120 | – |
| CC(C)Oc1ccc(N2CCN(CCCCNC(=O)c3ccc(NC(=O)c4ccc(Cl)cc4)cc3)CC2)c(OC(C)C)c1 | 512 | – |

| SMILES | XC50 (Plasmodium falciparum, 3D7) [nM] | XC50 [nM] |
| --- | --- | --- |
| CCn1c2ccccc2c2cc(C=NN=c3cc(C)[nH]c4ccccc34)ccc21 | 309 | – |
| Cc1cccc(CC(=N)NCCCCCCNC(=N)Cc2cccc(C)c2)c1 | 167 | – |
| COc1ccc2nccc([C@@H](O)CN3CCC(NC(=O)Cc4ccc(Br)c5ccccc45)CC3)c2c1 | 820 | – |
| N=C(N)NC(=O)Nc1cc(F)c(Cl)c(Cl)c1 | 505 | – |
| COc1ccc(CNC2CCN(C)CC2)cc1-c1ccc(S(=O)(=O)NCCc2ccccn2)c(F)c1 | 819 | – |
| CO/C=C(/C(=O)OC)c1ccccc1Oc1cc(Oc2ccccc2C#N)ncn1 [AZOXYSTROBIN] | 40.5 | – |
| CCCCCn1c(Sc2ccc(C#N)c([N+](=O)[O-])c2)nnc1-c1ccc(OC)cc1 | 1140 | – |
| CCOC(=O)c1ccc(N2CCN(CCCNC(=O)/C(=C/C=C/c3cc4cc(Cl)c(Cl)cc4[nH]3)OC)CC2)cc1 | 845 | – |
| CN(C)CC(=O)Nc1ccc(-c2ccc3ccnc(N)c3c2)cc1 | 33.1 | – |
| CC1CN(c2nc(NCCc3ccc(O)cc3)nc(NCc3ccccc3-c3ccc(C(F)(F)F)cc3)n2)CC(C)N1 (configuration not stated) | 529 | – |
| O=C1COC2(CN1C1CCN(Cc3ccc(O)cc3Cl)C1)c1ccccc1-c1ccccc12 (configuration not stated) | 1330 | – |
| CN(C)CCCNc1ncnc2c1[nH]c1ccc(Br)cc12 | 319 | – |
| Cc1c(-c2cccc(NC(=O)C(C)(C)Oc3ccc(Cl)cc3)c2)nc2ncccn12 | 170 | – |
| c1ccn2c(Sc3ncnc4sccc34)ncc2c1 | 663 | – |
| O=C(Nc1nc(-c2cc(F)ccc2F)cs1)c1cncc(Br)c1 | 1080 | – |
| Oc1ccc(CCNc2nc(NCCCOc3ccccc3-c3cccc(C(F)(F)F)c3)nc(N3CCNCC3)n2)cc1 | 882 | – |
| CN(CCCCCN1CCC(NC(=O)Nc2ccc(C(F)(F)F)cc2)C1)C(=O)/C=C/c1ccc(Cl)c(Cl)c1 (configuration not stated) | 771 | – |
| CC(=O)Nc1ncc(C(=O)Nc2cccc(-c3ccc(-c4nc5cccc(C)c5[nH]4)cc3)c2)s1 | 643 | – |
| Cc1[nH]c(C)c(-c2csc3ccccc23)c(=O)c1Cl | 1020 | – |
| NCC(=O)Nc1cccc(Nc2nccc(-c3c(-c4cccc(NC(=O)c5ccccc5)c4)nn4ccccc34)n2)c1 | 432 | – |
| C[C@H](Cc1ccc(OCCCCCCOc2ccccc2)cc1)NC[C@H](O)c1cccc(Cl)c1 | 70.4 | – |
| CN1CCN(c2ccc(-c3cc(-c4cc(F)c(F)c(F)c4)cnc3N)cc2)CC1 | 1010 | – |
| Cc1cccc(Nc2nc(C)cc(N3CCCN(CC4CCCCC4)CC3)n2)c1 | 1120 | – |
| O=C(c1ccco1)N1CCN(c2ccc([N+](=O)[O-])c(NC3CC3)c2)CC1 | 747 | – |
| N#Cc1ccc(C(=O)Nc2ccc(-c3cccc(CN4CCCC4)c3)cc2)cc1 | 1000 | – |

| SMILES | XC50 (Plasmodium falciparum, 3D7) [nM] | XC50 [nM] |
| --- | --- | --- |
| Fc1cccc(COc2ccc(Nc3ncnc4sc(C#C[C@H]5CC[C@H](CN6CCOCC6)N5)cc34)cc2Cl)c1 | 920 | – |
| CC1(C)N=C(N)N=C(N)N1c1ccccc1 | 327 | – |
| O=C(C=Cc1ccc(Cl)c(Cl)c1)NCCCCCN1CCC(CCNC(=O)c2ccc3c(c2)OCO3)CC1 | 693 | – |
| Cc1cc(OCCCN2CCC(NS(=O)(=O)c3cccc(Br)c3)C2)c2ccccc2n1 (configuration not stated) | 1210 | – |
| CCc1cn(CC(=O)N(CCOc2ccc(-c3ccc(C(F)(F)F)cc3)cc2)CCN(CC)CC)c(SCc2ccc(F)cc2)nc1=O | 777 | – |
| CCCCCCCn1c(=O)c(C(=O)Nc2c(C)cccc2C)c(O)c2ccccc21 | 910 | – |
| COc1cc(OC)cc(C(=O)N2CCOC(CCN3CCC(c4ccccc4)CC3)(c3ccc(Cl)c(Cl)c3)C2)c1 (configuration not stated) | 442 | – |
| Cc1ccc(C)c(S(=O)(=O)NCC2CCN(Cc3ccc(O)cc3)CC2)c1 | 978 | – |
| COc1ccc(OCCCON2C(=N)N=C(N)NC2(C)C)cc1 | 3.2 | – |
| CC1CC(NCCCNc2cc(=O)c3ccccc3[nH]2)c2c1cc(Cl)c(Cl)c2Cl (configuration not stated) | 837 | – |
| Cc1cc(=NN=Cc2ccc(F)cc2)c2cc(F)ccc2[nH]1 | 644 | – |
| C[C@H](N[C@H]1CCCc2c1[nH]c1ccc(Br)cc21)c1ccccc1 | 222 | – |
| CCn1ncc(Cl)c1CN(C)S(=O)(=O)c1ccc2ccccc2c1 | 818 | – |
| O=C(/C=C/c1cccc(OC(F)(F)F)c1)NCCCCCN1CCC(c2c[nH]c3ccccc23)CC1 | 958 | – |
| CCCN/C=N/c1cc(-c2csc(NC(=N)N)n2)cc([N+](=O)[O-])c1 | 1740 | – |
| CNCCNCc1cccc(-c2ccc(-c3nc4ccccc4[nH]3)cc2)c1 | 743 | – |
| CCCCNC(=O)[C@@H]1CCCN1C(=O)c1ccc(O)c(-c2ccc(Cl)c(Cl)c2)c1 | 751 | – |
| CC(C)COc1ccc(Cl)cc1Cc1ccc(-c2nc3cc(F)c(F)cc3[nH]2)o1 | 894 | – |
| Oc1ccc2nc(Nc3ccccc3)nc(NCCc3ccccc3)c2c1 | 152 | – |
| CC(C)(C)c1ccc(NC(=O)c2ccc(CN3CCCN(Cc4cccc(Cl)c4)CC3)cc2)cc1 | 972 | – |
| NC1CCN(CCNCc2cccc(-c3ccc(-c4nc5cc(F)ccc5[nH]4)cc3)c2)C1 (configuration not stated) | 734 | – |
| CS(=O)(=O)c1ccc(-n2nc(C(F)(F)F)cc2-c2ccc(C=NOCC(=O)O)o2)cc1 | 976 | – |
| O=C(NC1CCN(Cc2ccccc2)CC1)c1cc(-c2ccncc2)c(-c2ccc(Cl)c(O)c2)o1 | 407 | – |
| Cc1[nH]c(C)c(-c2ccc(CCc3ccc(F)cc3F)cc2)c(=O)c1Cl | 15.9 | – |
| Cc1cc(-c2ccc(CNCc3ccc(F)cc3)cc2)ccc1S(=O)(=O)NCCN1CCCC1 | 719 | – |

| SMILES | XC50 (Plasmodium falciparum, 3D7) [nM] | XC50 [nM] |
| --- | --- | --- |
| COc1ccc2nccc([C@@H](O)CN3CCC(NC(=O)c4ccc(C5(C(F)(F)F)N=N5)cc4)CC3)c2c1 | 931 | – |
| Cc1cc(-c2ccc3c(c2)CCN(CCCOc2ccc4c(c2)CCN4C(=O)/C=C/c2ccccc2Cl)CC3)no1 | 1230 | – |
| OC1CCCN(Cc2ccc(-c3ccc(-c4nc5ccccc5[nH]4)cc3)cc2)C1 (configuration not stated) | 838 | – |
| COc1ccccc1C1CCN(C2CCC(NC(=O)/C=C/c3ccc4c(c3)OC(F)(F)O4)CC2)CC1 (configuration not stated) | 836 | – |
| CO/C(=C\C=C\c1cc2cc(Cl)c(Cl)cc2[nH]1)C(=O)NCCCN1CCN(c2cccc(OCC(=O)Nc3ccccc3)c2)CC1 | 504 | – |
| Cc1ccnc2nc(C(=O)Nc3cc(C(F)(F)F)ccc3N3CCCCC3)nn12 | 61.8 | – |
| NC1=NC2(CCCCC2)N(OCCCCCCN2C(=O)c3ccccc3C2=O)C(N)=N1 | 871 | – |
| Brc1ccc(Nc2ccnc3cc(-c4nccs4)ccc23)cc1Oc1ccnc2cc(-c3nccs3)ccc12 | 1060 | – |
| Cc1nc2nc(N)nc(N)c2c(C)c1Cc1cccc(C#N)c1 | 924 | – |
| O=C(NCc1cccc(F)c1)Nc1cccc(-c2cccc(-c3nc4ccccc4[nH]3)c2)c1 | 389 | – |
| O=C(Nc1cc(Cl)cc(Cl)c1)c1cnn(-c2ccc(F)cc2)c1C1CCNCC1 | 853 | – |
| OC(CNCCc1ccccc1)Cn1c2ccc(Cl)cc2c2cc(Cl)ccc21 (configuration not stated) | 733 | – |
| Cn1cc(CCNc2ccnc(N3CCC(c4ncc[nH]4)CC3)n2)c2ccccc21 | 1200 | – |
| CNC(=O)c1ccccc1Nc1nc(Nc2ccc(N3CCN(C)CC3)nc2)ncc1C | 1140 | – |
| CC12CN3CC(C)(CN(C1)C3c1cc(Br)ccc1O)C2O (configuration not stated) | 228 | – |
| Cc1cc(NCCCCCCCCNc2cc(C)nc3ccccc23)c2ccccc2n1 | 985 | – |
| CO/C(=C\C=C\c1cc2cc(Cl)c(Cl)cc2[nH]1)C(=O)NCCCN1CCN(c2cccc(CCCO)c2)CC1 | 1030 | – |
| COc1ccc2nccc([C@@H](O)CN3CCC(NCc4ccc5nc[nH]c(=O)c5c4)CC3)c2c1 | 921 | – |
| c1ccc(-c2ccc3c(Nc4ccc5[nH]ncc5c4)ccnc3c2)nc1 | 822 | – |
| CC(Cc1ccc(OCC(=O)NCC2CCN(CCc3cccc(Cl)c3)CC2)cc1)NCCc1cccc(Cl)c1 (configuration not stated) | 663 | – |
| COc1cc(Cc2cnc(N)nc2N)cc(OCCCCCCN2C(=O)c3ccccc3C2=O)c1OC | 1100 | – |
| C=CC[C@H](C[C@H](O)[C@H](Cc1ccccc1)NC(=O)c1nn(-c2ccccc2)nc1C)C(=O)NC1CCCCC1 | 915 | – |
